In article PMC6117024, “NOP receptor pharmacological profile – A dynamic mass redistribution study” (PLoS ONE, 2018):

What was measured:
CHO cells = assay: DMR in wild type CHO cells; settings: for DMR response, CHO: CHO cells, pm ± sem
human NOP receptor [1] = biological target: T1, human NOP receptor (Homo sapiens, UniProt P41146); assay: DMR assay in CHONOP cells, agonist effects; settings: for Emax: DMR maximal effect; for DMR response, CHONOP: pm ± sem; for maximal effects compared with N/OFQ: DMR; for pEC50: DMR peak, at least 3 experiments in triplicate, inactive = no DMR response up to 1 μM, parentheses: CL95% (Fig 3)
NOP receptor = settings: cited from earlier work
Source text: This is in general in line with literature reports (see Table 2 of [3] that summarizes the action of these compounds in various assays/preparations at human recombinant and rodent native NOP receptors). However, there are some aspects that deserve attention.

human NOP receptor [2] = biological target: T1, human NOP receptor; assay type: cell-based; design: expressed in transfected cells; settings: comparison N/OFQ and Ac-RYYRIK-NH2
human NOP receptor [3] = biological target: T1, human NOP receptor; assay: DMR assay in CHONOP cells, antagonism of agonist concentration response curve
human NOP receptor [4] = biological target: T1, human NOP receptor; assay: Classical Schild protocol, DMR in CHONOP cells
[5] = system: NOP receptor (control neurons); settings: electrophysiology; cited from earlier work
[6] = system: NOP receptor (transfected neurons); settings: electrophysiology; cited from earlier work
[7] = biological target: human Nociceptin/Orphanin FQ (N/OFQ) peptide NOP receptor (human) (UniProt P41146)
mu opioid receptor = mu opioid receptor (UniProt P35372)
[8] = biological target: human Nociceptin/Orphanin FQ (N/OFQ) peptide NOP receptor (human) (UniProt P41146); remark: listed apart in the source
[9] = 1 μM, 37°C, * p < 0.05 vs buffer (one-way ANOVA, Dunnett's)
[10] = CHONOP cells, 1 μM, 37°C, * p < 0.05 vs buffer (one-way ANOVA, Dunnett's)
[11] = CHONOP cells, 100 μM, * p < 0.05 vs buffer

T1 sequence (P41146 whole entry): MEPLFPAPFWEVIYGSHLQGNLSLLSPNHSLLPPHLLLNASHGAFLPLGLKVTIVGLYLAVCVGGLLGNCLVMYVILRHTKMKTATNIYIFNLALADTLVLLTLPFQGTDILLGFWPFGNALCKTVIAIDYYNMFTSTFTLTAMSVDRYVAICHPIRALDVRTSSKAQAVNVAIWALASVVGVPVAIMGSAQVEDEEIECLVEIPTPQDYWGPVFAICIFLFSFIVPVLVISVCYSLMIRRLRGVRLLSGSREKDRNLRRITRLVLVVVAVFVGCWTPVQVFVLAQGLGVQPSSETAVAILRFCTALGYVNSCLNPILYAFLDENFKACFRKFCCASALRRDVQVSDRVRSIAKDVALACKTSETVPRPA
Sequence of human Nociceptin/Orphanin FQ (N/OFQ) peptide NOP receptor (human) (P41146 whole entry): as above
Sequence of mu opioid receptor (P35372 whole entry): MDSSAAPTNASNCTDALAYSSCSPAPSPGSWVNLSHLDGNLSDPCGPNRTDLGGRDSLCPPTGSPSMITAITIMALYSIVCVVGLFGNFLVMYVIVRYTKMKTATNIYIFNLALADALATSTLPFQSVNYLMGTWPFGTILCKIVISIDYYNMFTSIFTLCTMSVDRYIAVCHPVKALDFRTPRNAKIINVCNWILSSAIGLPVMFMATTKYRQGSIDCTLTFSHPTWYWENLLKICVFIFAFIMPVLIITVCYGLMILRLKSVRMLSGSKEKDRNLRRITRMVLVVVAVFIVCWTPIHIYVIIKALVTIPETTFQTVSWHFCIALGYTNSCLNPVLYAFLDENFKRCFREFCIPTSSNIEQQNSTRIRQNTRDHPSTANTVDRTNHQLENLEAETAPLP

Compound: CC(C)C1CCC(N2CCC(N3C(=O)C(=O)c4ccccc43)CC2)CC1 (centres unmarked) [AT-090]
- DMR response, CHO (CHO cells; [9]): 21±3 pm
- intrinsic activity (α) (human NOP receptor [1]): 1.23
- Emax (human NOP receptor [1]; CHONOP cells): 252
- DMR response, CHONOP (human NOP receptor [1]; [10]): 252±15 ^* pm
- maximal effects compared with N/OFQ (human NOP receptor [1]; CHONOP): not statistically different to those of N/OFQ
- efficacy vs N/OFQ, GTPγS binding (NOP receptor): significantly lower efficacy than N/OFQ
- efficacy vs N/OFQ, NOP/G protein interaction (NOP receptor): significantly lower efficacy than N/OFQ

Compound: Nc1ncnc2c1ncn2[C@@H]1O[C@H](COP(=O)(O)OP(=O)(O)OP(=O)(O)O)[C@@H](O)[C@H]1O [ATP]
- DMR response, CHO (CHO cells; 100 μM, * p < 0.05 vs buffer): 177±15 ^* pm
- DMR response, CHONOP (human NOP receptor [1]; [11]): 185±12 ^* pm

Compound: CC[C@H](C)[C@H](NC(=O)[C@H](CCCNC(=N)N)NC(=O)[C@H](Cc1ccc(O)cc1)NC(=O)[C@H](Cc1ccc(O)cc1)NC(=O)[C@H](CCCNC(=N)N)NC(C)=O)C(=O)N[C@@H](CCCCN)C(N)=O [Ac-RYYRIK-NH2]
- DMR response, CHO (CHO cells; [9]): 17±8 pm
- intrinsic activity (α) (human NOP receptor [1]): 0.89
- Emax (human NOP receptor [1]; CHONOP cells): 182
- DMR response, CHONOP (human NOP receptor [1]; [10]): 182±11 ^* pm
- maximal effects compared with N/OFQ (human NOP receptor [1]; CHONOP): not statistically different to those of N/OFQ
- negative DMR signal (human NOP receptor [1]; after 1000 sec, in some but not all experiments): concentration dependent negative signal after 1000 sec
- sensitivity of DMR response to PTX (human NOP receptor [2]): equally sensitive to PTX
- efficacy vs N/OFQ, GTPγS binding (NOP receptor): significantly lower efficacy than N/OFQ
- efficacy vs N/OFQ, NOP/G protein interaction (NOP receptor): significantly lower efficacy than N/OFQ
- sensitivity of DMR response to SB-612111 (human NOP receptor [3]; comparison N/OFQ and Ac-RYYRIK-NH2): equally sensitive to PTX and to the NOP selective antagonist SB-612111

Compound: C=C[C@@]1(C)CC(=O)[C@]2(O)[C@@]3(C)[C@@H](O)CCC(C)(C)[C@@H]3[C@H](O)[C@H](OC(C)=O)[C@@]2(C)O1 [FSK]
- DMR response, CHO (CHO cells; 100 μM, * p < 0.05 vs buffer): -172±23 ^* pm
- DMR response, CHONOP (human NOP receptor [1]; [11]): -164±15 ^* pm

Compound: C=CCN1CC[C@]23c4c5ccc(O)c4O[C@H]2C(=O)CC[C@@]3(O)[C@H]1C5 [Naloxone]
- DMR response, CHO (CHO cells; [9]): 23±5 pm

Compound: O=C1NCN(c2ccccc2)C12CCN(C1Cc3cccc4cccc1c34)CC2 (centres unmarked) [Ro 65–6570]
- activity in wild type CHO cells (CHO cells; 10 μM): exhibited a DMR response in wild type CHO cells
- DMR response, CHO (CHO cells; [9]): 23±8 pm

Compound: Cc1cccc2c1CC[C@H](CN1CCC(c3c(Cl)cccc3Cl)CC1)C[C@@H]2O [SB-612111, (-)-cis-1-methyl-7-[[4-(2,6-dichlorophenyl)piperidin-1-yl]methyl]-6,7,8,9-tetrahy dro-5H-benzocyclohepten-5-ol]
- DMR response, CHO (CHO cells; [9]): 26±3 pm
- effect per se in CHONOP cells (human NOP receptor [1]; CHONOP cells): did not produce any effect per se
- pEC50 (human NOP receptor [1]; CHONOP cells, 37°C): inactive
- DMR response, CHONOP (human NOP receptor [1]; [10]): -10±9 pm
- effect on N/OFQ maximal effects (Schild) (human NOP receptor [4]; 10 nM–1 μM): without significantly affecting its maximal effects
- Schild slope (human NOP receptor [4]; vs N/OFQ, Schild plot): ~1

Compound: CCn1c(=O)n(C2=C(CO)CN(CC3CCCCCCC3)CC2)c2ccccc21 [Trap-101]
- activity in control neurons [5]: pure antagonists
- activity in NOP transfected neurons [6]: inverse agonists

Compound: C[C@H](NC(=O)CNC(=O)[C@@H](NC(=O)[C@H](Cc1ccccc1)NC(=O)CNC(=O)CNC(=O)CNCc1ccccc1)[C@@H](C)O)C(=O)N[C@@H](CCCNC(=N)N)C(=O)N[C@@H](CCCCN)C(=O)N[C@@H](CO)C(=O)N[C@@H](C)C(=O)N[C@@H](CCCNC(=N)N)C(=O)N[C@@H](CCCCN)C(=O)N[C@@H](CCCNC(=N)N)C(=O)N[C@@H](CCCCN)C(=O)N[C@@H](CC(N)=O)C(=O)N[C@@H](CCC(N)=O)C(N)=O [UFP-101, [Nphe1,Arg14,Lys15]nociceptin-NH2]
- pEC50 (human NOP receptor [1]; CHONOP cells, 37°C): crc incomplete
- stimulatory effect per se (human NOP receptor [1]; CHONOP, % of the maximal effects of N/OFQ): ~20%
- Kb (human NOP receptor [3]): 25.1 nM

Compound: Ac-RYYRIK-NH2 (peptide)
- DMR response at 1 μM, CHONOP cells [7]: 182 pm

Compound: Dermorphin (peptide)
- pEC50 of the DMR response, CHO cells expressing the mu opioid receptor (mu opioid receptor): 8.59 -log10(M)

Compound: PWT2-N/OFQ (peptide)
- intrinsic activity α (Emax relative to N/OFQ), DMR, CHONOP cells (relative to N/OFQ) [8]: 0.97
- pEC50 of the DMR response (peak), CHONOP cells, tested up to 0.1 μM [8]: 8 -log10(M)
- DMR response at 0.1 μM, CHONOP cells [7]: 198 pm

Compound: UFP-101 (peptide)
- pKB (antagonist potency): rightward shift by 1 μM UFP-101 of the concentration response curve to N/OFQ at the NOP receptor, DMR, CHONOP cells [8]: 7.6 -log10(M)
- DMR response at 1 μM, CHONOP cells (not marked as different from buffer) [7]: 40 pm

Compound: UFP-112 (peptide)
- intrinsic activity α (Emax relative to N/OFQ), DMR, CHONOP cells (relative to N/OFQ) [8]: 1.21
- pEC50 of the DMR response (peak), CHONOP cells [8]: 8.66 -log10(M)
- DMR response at 1 μM, CHONOP cells [7]: 248 pm

Compound: [Arg^14,Lys^15]N/OFQ (peptide)
- DMR response at 1 μM, CHONOP cells [7]: 271 pm

Compound: [F/G]N/OFQ(1–13)-NH2 (peptide)
- intrinsic activity α (Emax relative to N/OFQ), DMR, CHONOP cells (relative to N/OFQ) [8]: 0.98
- pEC50 of the DMR response (peak), CHONOP cells [8]: 8.06 -log10(M)
- DMR response at 1 μM, CHONOP cells [7]: 200 pm

Compound: [Nphe^1]N/OFQ(1–13)-NH2 (peptide)
- DMR response at 1 μM, CHONOP cells [7]: 180 pm
